Measured values published in publication PMC10089289, “Well-Defined Heparin Mimetics Can Inhibit Binding of the Trimeric Spike of SARS-CoV-2 in a Length-Dependent Manner” (JACS Au, 2023).

Molecular target: SARS-CoV-2 Delta RBD binding to Vero E6 cells (Severe acute respiratory syndrome coronavirus 2, UniProt P0DTC2, L452R/T478K)
Assay type: cell-based

NCCCCCOC1OC(COS(=O)(=O)O)C(OC2OC(C(=O)O)C(OC3OC(COS(=O)(=O)O)C(OC4OC(C(=O)O)C(OC5OC(COS(=O)(=O)O)C(OC6OC(C(=O)O)C(O)C(O)C6O)C(O)C5NS(=O)(=O)O)C(O)C4OS(=O)(=O)O)C(O)C3NS(=O)(=O)O)C(O)C2OS(=O)(=O)O)C(O)C1NS(=O)(=O)O (stereo not shown) [Compound 1, GlcA-GlcNS6S-IdoA2S-GlcNS6S-IdoA2S-GlcNS6S]
Inhibition of delta RBD binding to Vero E6 cells: does not display inhibition
